Where two headings read alike, the source gives them in different places.
What was measured:
human NK1 receptor = human NK1 receptor (Homo sapiens, UniProt P25103); assay: NK1 receptor binding, [3H]substance P displacement, CHO cell membranes
[1] = target: T1, Recombinant human NK3 (hNK3) receptor (Homo sapiens, UniProt P29371); assay: NK3 receptor binding, [3H]SR142801 displacement, membrane preparations
T1 construct: expressed in transfected cells
T1 sequence (P29371 1-465): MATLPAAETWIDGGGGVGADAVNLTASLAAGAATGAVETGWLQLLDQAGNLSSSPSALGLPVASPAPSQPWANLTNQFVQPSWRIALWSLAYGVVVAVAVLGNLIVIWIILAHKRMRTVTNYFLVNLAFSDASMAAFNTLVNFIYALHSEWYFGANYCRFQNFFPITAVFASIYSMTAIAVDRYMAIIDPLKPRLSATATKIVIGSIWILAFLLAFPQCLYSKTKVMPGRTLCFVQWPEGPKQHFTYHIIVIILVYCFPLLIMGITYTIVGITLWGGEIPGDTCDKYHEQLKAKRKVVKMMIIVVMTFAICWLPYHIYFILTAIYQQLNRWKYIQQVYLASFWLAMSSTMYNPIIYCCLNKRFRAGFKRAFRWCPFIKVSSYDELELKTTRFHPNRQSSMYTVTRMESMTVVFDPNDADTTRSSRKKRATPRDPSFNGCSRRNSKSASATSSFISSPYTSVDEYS
Procedure, shortened: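 Room-temperature, 90-min filtration binding assay using about 2.5 μg recombinant receptor membranes per well; separation on polyethyleneimine-treated glass-fibre (GF/C) filters and liquid scintillation read-out, with 10 μM SB222200 for nonspecific binding.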

[2] = first value of the cell pKi NK1/NK3, human NK1 receptor, [3H]substance P
[3] = second value of the cell pKi NK1/NK3, hNK3 receptor, [3H]SR142801
[4] = first value of the cell NK1/NK3, read-out: pKi NK1 (converted)
[5] = second value of the cell NK1/NK3, read-out: pKi NK3 (converted)

human NK1 receptor, sequence (P25103 whole entry): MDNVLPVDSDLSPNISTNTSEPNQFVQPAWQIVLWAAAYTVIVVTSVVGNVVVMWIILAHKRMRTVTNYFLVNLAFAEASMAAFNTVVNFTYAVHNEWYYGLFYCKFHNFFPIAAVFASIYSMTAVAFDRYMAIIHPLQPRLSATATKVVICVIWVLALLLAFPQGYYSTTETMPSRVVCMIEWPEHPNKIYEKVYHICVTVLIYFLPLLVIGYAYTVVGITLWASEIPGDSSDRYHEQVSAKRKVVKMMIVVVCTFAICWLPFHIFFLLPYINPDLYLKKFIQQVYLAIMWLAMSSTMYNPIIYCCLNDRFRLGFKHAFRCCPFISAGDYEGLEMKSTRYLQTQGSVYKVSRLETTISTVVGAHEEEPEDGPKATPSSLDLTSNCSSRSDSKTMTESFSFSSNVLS

SMILES	Ki (human NK1 receptor; [2]) [nM]	Ki [1, 3] [nM]	Ki (human NK1 receptor; [4]) [nM]	Ki [1, 5] [nM]
CCN(CCO)c1cc(-c2ccccc2C)c(N(C)C(=O)C(C)(C)c2cc(C(F)(F)F)cc(C(F)(F)F)c2)cn1 [Example 118, 2-(3,5-Bis-trifluoromethyl-phenyl)-N-{6-[ethyl-(2-hydroxy-ethyl)-amino]-4-o-tolyl-pyridin-3-yl}-N-methyl-isobutyramide]	3.63	4.57		
Cc1ncccc1-c1cc(N(CCO)CCO)ncc1N(C)C(=O)C(C)(C)c1cc(C(F)(F)F)cc(C(F)(F)F)c1 [Example 291, N-{6′-[Bis-(2-hydroxy-ethyl)-amino]-2-methyl-[3,4′]bipyridinyl-3′-yl}-2-(3,5-bis-trifluoromethyl-phenyl)-N-methyl-isobutyramide]			3.31	7.76
Cc1ccccc1-c1cc(N2C[C@H](O)C[C@H]2CO)ncc1N(C)C(=O)C(C)(C)c1cc(F)cc(F)c1 [Example 16, (2S,4R)-2-(3,5-Difluoro-phenyl)-N-[6-(4-hydroxy-2-hydroxymethyl-pyrrolidin-1-yl)-4-o-tolyl-pyridin-3-yl]-N-methyl-isobutyramide]	2.63	4.07		
CN(C(=O)C(C)(C)c1cc(C(F)(F)F)cc(C(F)(F)F)c1)c1cnc(N2C[C@@H](O)C[C@H]2CO)cc1-c1cccc(F)c1 [Example 251, (2S,4S)-2-(3,5-Bis-trifluoromethyl-phenyl)-N-[4-(3-fluoro-phenyl)-6-(4-hydroxy-2-hydroxymethyl-pyrrolidin-1-yl)-pyridin-3-yl]-N-methyl-isobutyramide]			1.32	8.91
CN(C(=O)C(C)(C)c1cc(C(F)(F)F)cc(C(F)(F)F)c1)c1cnc(NCC(O)CO)cc1-c1ccccc1Cl (racemic) [Example 78, (RS)-2-(3,5-Bis-trifluoromethyl-phenyl)-N-[4-(2-chloro-phenyl)-6-(2,3-dihydroxy-propylamino)-pyridin-3-yl]-N-methyl-isobutyramide]	2.82	6.17		
CN(C(=O)C(C)(C)c1cc(C(F)(F)F)cc(C(F)(F)F)c1)c1cnc(N2C[C@H](O)C[C@H]2CO)cc1-c1ccccc1N [Example 213, (2S,4R)-N-[4-(2-Amino-phenyl)-6-(4-hydroxy-2-hydroxymethyl-pyrrolidin-1-yl)-pyridin-3-yl]-2-(3,5-bis-trifluoromethyl-phenyl)-N-methyl-isobutyramide]			0.661	3.24
CN(C(=O)C(C)(C)c1cc(Cl)cc(Cl)c1)c1cnc(N2CCC[C@H]2CO)cc1-c1ccccc1Cl [Example 2, (S)-N-[4-(2-Chloro-phenyl)-6-(2-hydroxymethyl-pyrrolidin-1-yl)-pyridin-3-yl]-2-(3,5-dichloro-phenyl)-N-methyl-isobutyramide]	3.39	0.891		
Cc1ccccc1-c1cc(N2CC[C@H](O)[C@H]2CO)ncc1N(C)C(=O)C(C)(C)c1cc(C(F)(F)F)cc(C(F)(F)F)c1 [Example 261, (2R,3S)-2-(3,5-Bis-trifluoromethyl-phenyl)-N-[6-(3-hydroxy-2-hydroxymethyl-pyrrolidin-1-yl)-4-o-tolyl-pyridin-3-yl]-N-methyl-isobutyramide]			1.29	0.912
Cc1ccccc1-c1cc(N(CC(C)O)CC(C)O)ncc1N(C)C(=O)C(C)(C)c1cc(C(F)(F)F)cc(C(F)(F)F)c1 (centres unmarked) [Example 121, N-{6-[Bis-(2-hydroxy-propyl)-amino]-4-o-tolyl-pyridin-3-yl}-2-(3,5-bis-trifluoromethyl-phenyl)-N-methyl-isobutyramide]	2.88	11		
COc1ccccc1-c1cc(N2C[C@H](O)C[C@H]2CO)ncc1N(C)C(=O)C(C)(C)c1cc(C(F)(F)F)cc(C(F)(F)F)c1 [Example 214, (2S,4R)-2-(3,5-Bis-trifluoromethyl-phenyl)-N-[6-(4-hydroxy-2-hydroxymethyl-pyrrolidin-1-yl)-4-(2-methoxy-phenyl)-pyridin-3-yl]-N-methyl-isobutyramide]			1.02	2.75
Cc1ncccc1-c1cc(N2CCC[C@H]2CO)ncc1N(C)C(=O)C(C)(C)c1cc(C(F)(F)F)cc(C(F)(F)F)c1 [Example 290, (S)-2-(3,5-Bis-trifluoromethyl-phenyl)-N-[6′-(2-hydroxymethyl-pyrrolidin-1-yl)-2-methyl-[3,4′]bipyridinyl-3′-yl]-N-methyl-isobutyramide]			1.45	1.78

Results, then the compound that gave them:

Ki (human NK1 receptor; [2]) [nM]	Ki [1, 3] [nM]	Ki (human NK1 receptor; [4]) [nM]	Ki [1, 5] [nM]	SMILES
1.58	9.55			CN(C(=O)C(C)(C)c1cc(C(F)(F)F)cc(C(F)(F)F)c1)c1cnc(N(CCO)CCO)cc1-c1ccc(Cl)c(Cl)c1 [Example 87, N-[6-[Bis-(2-hydroxy-ethyl)-amino]-4-(3,4-dichloro-phenyl)-pyridin-3-yl]-2-(3,5-bis-trifluoromethyl-phenyl)-N-methyl-isobutyramide]
0.933	1.74			Cc1cc(F)ccc1-c1cc(N2C[C@H](O)C[C@H]2CO)ncc1N(C)C(=O)C(C)(C)c1cc(F)cc(C(F)(F)F)c1 [Example 25, (2S,4R)-N-[4-(4-Fluoro-2-methyl-phenyl)-6-(4-hydroxy-2-hydroxymethyl-pyrrolidin-1-yl)-pyridin-3-yl]-2-(3-fluoro-5-trifluoromethyl-phenyl)-N-methyl-isobutyramide]
1.26	7.94			CN(C(=O)C(C)(C)c1cc(C(F)(F)F)cc(C(F)(F)F)c1)c1cnc(N[C@H]2CC[C@H](O)CC2)cc1-c1ccccc1Cl [Example 60, trans-2-(3,5-Bis-trifluoromethyl-phenyl)-N-[4-(2-chloro-phenyl)-6-(4-hydroxy-cyclohexylamino)-pyridin-3-yl]-N-methyl-isobutyramide]
2.4	35.5			CC(=O)N[C@H]1CCN(c2cc(-c3ccccc3Cl)c(N(C)C(=O)C(C)(C)c3cc(C(F)(F)F)cc(C(F)(F)F)c3)cn2)C1 [Example 43, (S)-N-[6-(3-Acetylamino-pyrrolidin-1-yl)-4-(2-chloro-phenyl)-pyridin-3-yl]-2-(3,5-bis-trifluoromethyl-phenyl)-N-methyl-isobutyramide]
1.41	14.5			CN(C(=O)C(C)(C)c1cc(C(F)(F)F)cc(C(F)(F)F)c1)c1cnc(N2CCCC(O)C2)cc1-c1ccccc1Cl (racemic) [Example 50, (RS)-2-(3,5-Bis-trifluoromethyl-phenyl)-N-[4′-(2-chloro-phenyl)-3-hydroxy-3,4,5,6-tetrahydro-2H-[1,2′]bipyridinyl-5′-yl]-N-methyl-isobutyramide]
2.09	18.6			Cc1cc(F)ccc1-c1cc(N2CC(O)C2)ncc1N(C)C(=O)C(C)(C)c1cc(C(F)(F)F)cc(C(F)(F)F)c1 [Example 162, 2-(3,5-Bis-trifluoromethyl-phenyl)-N-[4-(4-fluoro-2-methyl-phenyl)-6-(3-hydroxy-azetidin-1-yl)-pyridin-3-yl]-N-methyl-isobutyramide]
2.04	13.5			Cc1cc(F)ccc1-c1cc(N2CC[C@H](O)C2)ncc1N(C)C(=O)C(C)(C)c1cc(C(F)(F)F)cc(C(F)(F)F)c1 [Example 109, (S)-2-(3,5-Bis-trifluoromethyl-phenyl)-N-[4-(4-fluoro-2-methyl-phenyl)-6-(3-hydroxy-pyrrolidin-1-yl)-pyridin-3-yl]-N-methyl-isobutyramide]
1.7	1.26			COc1cc(Cl)cc(C(C)(C)C(=O)N(C)c2cnc(N3C[C@H](O)C[C@H]3CO)cc2-c2ccccc2Cl)c1 [Example 8, (2S,4R)-2-(3-Chloro-5-methoxy-phenyl)-N-[4-(2-chloro-phenyl)-6-(4-hydroxy-2-hydroxymethyl-pyrrolidin-1-yl)-pyridin-3-yl]-N-methyl-isobutyramide]
1.95	9.12			Cc1cc(F)ccc1-c1cc(N2CCC(S(C)(=O)=O)C2)ncc1N(C)C(=O)C(C)(C)c1cc(C(F)(F)F)cc(C(F)(F)F)c1 (racemic) [Example 170, (RS)-2-(3,5-Bis-trifluoromethyl-phenyl)-N-[4-(4-fluoro-2-methyl-phenyl)-6-(3-methanesulfonyl-pyrrolidin-1-yl)-pyridin-3-yl]-N-methyl-isobutyramide]
0.871	5.75			CC(O)CNc1cc(-c2ccccc2Cl)c(N(C)C(=O)C(C)(C)c2cc(C(F)(F)F)cc(C(F)(F)F)c2)cn1 (racemic) [Example 74, (RS)-2-(3,5-Bis-trifluoromethyl-phenyl)-N-[4-(2-chloro-phenyl)-6-(2-hydroxy-propylamino)-pyridin-3-yl]-N-methyl-isobutyramide]
2.34	2.29			Cc1cc(F)ccc1-c1cc(N(CCO)CCCO)ncc1N(C)C(=O)C(C)(C)c1cc(C(F)(F)F)cc(C(F)(F)F)c1 [Example 85, 2-(3,5-Bis-trifluoromethyl-phenyl)-N-{4-(4-fluoro-2-methyl-phenyl)-6-[(2-hydroxy-ethyl)-(3-hydroxy-propyl)-amino]-pyridin-3-yl}-N-methyl-isobutyramide]
